The results in this text go back to article PMC8154525 (Journal of the American Chemical Society, 2021).

For this assay, the system named is aminopeptidase M (Ap). Kind of assay: Ap-catalyzed cleavage of H-Arg-AMC. In kind it is biochemical. The following applies: read-out: KM (Ap-catalyzed cleavage); substrate of aminopeptidase M.

Structures are written as SMILES.

The term Km denotes the substrate concentration at which the rate is half of its maximum. As to `Cc1cc(=O)oc2cc(NC(=O)[C@@H](N)CCCN=C(N)N)ccc12` [H-Arg-AMC], the Km was 5 mM.
